Several values for one entry are separate records, joined by “and”; a condition that tells them apart may be missing. Identical values can stand only once. Like-named read-outs stand apart in the source and are kept apart here.
Test: Phase I clinical trial, food effect part: pharmacokinetics of C21 fed vs fasted
Format: in vivo, human
Conditions: for AUC(0-t) / AUC(0-inf) / Cmax / Vd/F / half-life / Tmax: both sexes, human, plasma; for Tmax: read-out: tmax, Median
Method: In addition, the effect of food on the pharmacokinetics (PK) of C21 was investigated in an open label manner in 10 male and female subjects at a single oral dose of 75 mg.
Subjects were to receive two single doses of 75 mg of C21 at least 3 days apart in a randomised fashion either in fasted or in fed state. A Food and Drug Administration (FDA)-recommended high-fat breakfast was used to investigate maximum effects.
In the food effect part of the study, the subjects' ages ranged from 22 to 44 years with a median age of 36.0 years. Most of the subjects were Caucasian (9 (90.0% of) subjects) and male (8 (80.0% of) subjects). The mean (SD) BMI of overall subjects was 23.96 (2.223) kg/m^2.
C21 sodium salt as a pre-frozen oral solution (comprising 2.5 mg/mL C21 sodium salt sodium salt dissolved in an aqueous carbonate buffer) with a composition as shown in Table 1 below.
Plasma concentrations below the lower limit of quantification (LLOQ) were presented as below the lower limit of quantification (BLQ). Plasma concentrations for C21 were summarised by study part, dose cohort and nominal time point.
Pharmacokinetic parameters were calculated by non-compartmental analysis methods from the concentration-time data using Phoenix® WinNonlin® (Version 8.0) or higher following these guidelines: • Actual sampling times relative to dosing rather than nominal times were used in the calculation of all derived pharmacokinetic parameters. • There was no imputation of missing data. • Any subjects with missing concentration data were included in the PK analysis set provided that at least Cmax and AUC(0-t) could be reliably calculated.
All BLQ values pre-dose and in the absorption phase prior to the first quantifiable concentration were substituted by zeros. Single BLQs that fell between two evaluable concentrations were substituted by missing, before the calculation of the PK variables. Consecutive BLQs that fell between evaluable concentrations were substituted by zero, before the calculation of the PK variables. Terminal BLQ values were disregarded.
Bioequivalence of PK parameters from the open label food effect arm were determined by constructing 90% confidence intervals around the estimated difference between the Test and Reference treatments using a mixed effects model based on natural log transformed data. The mixed effects model was implemented using SAS Proc Mixed, with REML estimation method and Kenward-Roger degrees of freedom algorithm.
Natural logarithm transformed AUC(0-inf) (if data permitted), AUC(0-24) and Cmax were analysed using a mixed effects model with sequence, period and treatment as fixed effects and subject within sequence as a random effect. Estimates of the mean differences (Test-Reference) and corresponding 90% confidence intervals were obtained from the model. The estimated mean differences and 90% confidence intervals for the differences were exponentiated to provide estimates of the ratio of geometric means (Test/Reference) and 90% confidence intervals for the ratios. C21 in the fasted state is the Reference treatment and C21 in the fed state is the Test treatment.
The comparisons assessing the food effect (bioequivalence) were used to assess the effect of food on the rate and extent of absorption of C21 administered under fasted and fed conditions with estimates of the mean differences as well as corresponding 90% confidence intervals being presented.
The model is a mixed analysis of variance (ANOVA) model with a fixed term for sequence, period, treatment, and a random effect for subject within sequence.

[1] = 75 mg, fed (Test) vs fasted (Reference)
[2] = 75 mg, higher for the fed treatment
[3] = single oral dose 75 mg, Fasted, N = 9
[4] = single oral dose 75 mg, Fed, N = 10

AUC(0-24), Geometric Mean Ratio (Fed:Fasted) [1]: 0.45 and 0.449
AUC(0-inf), Geometric Mean Ratio (Fed:Fasted) [1]: 0.45 and 0.449
Cmax, Geometric Mean Ratio (Fed:Fasted) [1]: 0.16 and 0.155
CL/F, fed treatment compared to fasted treatment [2]: approximately 2 fold
VZ/F, fed treatment compared to fasted treatment [2]: 3 fold
food effect on pharmacokinetics (Phase I clinical trial in healthy subjects): a pronounced food effect was observed
AUC(0-t) (oral, 75 mg, Fasted (N = 9), mixed ANOVA model, read-out: AUC(0-24), Geometric Mean (95% CI), mixed effects model): 1710 ng·h/mL
AUC(0-inf) (oral, 75 mg, Fasted (N = 9), mixed ANOVA model, read-out: AUC(0-inf), Geometric Mean (95% CI), mixed effects model): 1710 ng·h/mL
Cmax (oral, 75 mg, Fasted (N = 9), mixed ANOVA model, read-out: Cmax, Geometric Mean (95% CI), mixed effects model): 1700 ng/mL
AUC(0-t) (oral, 75 mg, Fed (N = 10), mixed ANOVA model, read-out: AUC(0-24), Geometric Mean (95% CI), mixed effects model): 768 ng·h/mL
AUC(0-inf) (oral, 75 mg, Fed (N = 10), mixed ANOVA model, read-out: AUC(0-inf), Geometric Mean (95% CI), mixed effects model): 769 ng·h/mL
Cmax (oral, 75 mg, Fed (N = 10), mixed ANOVA model, read-out: Cmax, Geometric Mean (95% CI), mixed effects model): 263 ng/mL
Cmax (po, 75 mg, single oral dose 75 mg, Fasted, N = 9, plasma, read-out: Cmax, Arithmetic Mean): 1810 ng/mL
Cmax (po, 75 mg, single oral dose 75 mg, Fasted, N = 9, plasma, read-out: Cmax, Geometric Mean): 1710 ng/mL
AUC(0-t) (po, 75 mg, single oral dose 75 mg, Fasted, N = 9, read-out: AUC(0-6), Arithmetic Mean): 1850 ng·h/mL
AUC(0-t) (po, 75 mg, single oral dose 75 mg, Fasted, N = 9, read-out: AUC(0-6), Geometric Mean): 1760 ng·h/mL
AUC(0-t) (po, 75 mg, single oral dose 75 mg, Fasted, N = 9, read-out: AUC(0-12), Arithmetic Mean): 1860 ng·h/mL
AUC(0-t) (po, 75 mg, single oral dose 75 mg, Fasted, N = 9, read-out: AUC(0-12), Geometric Mean): 1770 ng·h/mL
AUC(0-t) (po, 75 mg, single oral dose 75 mg, Fasted, N = 9, read-out: AUC(0-24), Arithmetic Mean): 1860 ng·h/mL
AUC(0-inf) (po, 75 mg, single oral dose 75 mg, Fasted, N = 9, read-out: AUC(0-inf), Arithmetic Mean): 1860 ng·h/mL
AUC(0-inf) (po, 75 mg, single oral dose 75 mg, Fasted, N = 9, read-out: AUC(0-inf), Geometric Mean): 1770 ng·h/mL
AUC(0-t) (po, 75 mg, single oral dose 75 mg, Fasted, N = 9, read-out: AUC(0-t), Arithmetic Mean): 1840 ng·h/mL
AUC(0-t) (po, 75 mg, single oral dose 75 mg, Fasted, N = 9, read-out: AUC(0-t), Geometric Mean): 1750 ng·h/mL
Vd/F (po, 75 mg, single oral dose 75 mg, Fasted, N = 9, read-out: Vz/F, Arithmetic Mean): 36.6 L
Vd/F (po, 75 mg, single oral dose 75 mg, Fasted, N = 9, read-out: Vz/F, Geometric Mean): 34.8 L
half-life (po, 75 mg, single oral dose 75 mg, Fasted, N = 9, read-out: t1/2, Arithmetic Mean): < 60 min
half-life (po, 75 mg, single oral dose 75 mg, Fasted, N = 9, read-out: t1/2, Geometric Mean (converted)): 34.1 min
Tmax (po, 75 mg, single oral dose 75 mg, Fasted, N = 9): 40.2 min
Cmax (po, 75 mg, single oral dose 75 mg, Fed (high-fat breakfast), N = 10, plasma, read-out: Cmax, Arithmetic Mean): 269 ng/mL
Cmax (po, 75 mg, single oral dose 75 mg, Fed (high-fat breakfast), N = 10, plasma, read-out: Cmax, Geometric Mean): 263 ng/mL
AUC(0-t) (po, 75 mg, single oral dose 75 mg, Fed, N = 10, read-out: AUC(0-6), Arithmetic Mean): 747 ng·h/mL
AUC(0-t) (po, 75 mg, single oral dose 75 mg, Fed, N = 10, read-out: AUC(0-6), Geometric Mean): 732 ng·h/mL
AUC(0-t) (po, 75 mg, single oral dose 75 mg, Fed, N = 10, read-out: AUC(0-12), Arithmetic Mean): 790 ng·h/mL
AUC(0-t) (po, 75 mg, single oral dose 75 mg, Fed, N = 10, read-out: AUC(0-12), Geometric Mean): 767 ng·h/mL
AUC(0-t) (po, 75 mg, single oral dose 75 mg, Fed, N = 10, read-out: AUC(0-24), Arithmetic Mean): 792 ng·h/mL
AUC(0-t) (po, 75 mg, single oral dose 75 mg, Fed, N = 10, read-out: AUC(0-24), Geometric Mean): 768 ng·h/mL
AUC(0-inf) (po, 75 mg, single oral dose 75 mg, Fed, N = 10, read-out: AUC(0-inf), Arithmetic Mean): 792 ng·h/mL
AUC(0-inf) (po, 75 mg, single oral dose 75 mg, Fed, N = 10, read-out: AUC(0-inf), Geometric Mean): 768 ng·h/mL
AUC(0-t) (po, 75 mg, single oral dose 75 mg, Fed, N = 10, read-out: AUC(0-t), Arithmetic Mean): 767 ng·h/mL
AUC(0-t) (po, 75 mg, single oral dose 75 mg, Fed, N = 10, read-out: AUC(0-t), Geometric Mean): 742 ng·h/mL
Vd/F (po, 75 mg, single oral dose 75 mg, Fed, N = 10, read-out: Vz/F, Arithmetic Mean): 120 L
Vd/F (po, 75 mg, single oral dose 75 mg, Fed, N = 10, read-out: Vz/F, Geometric Mean): 118 L
half-life (po, 75 mg, single oral dose 75 mg, Fed, N = 10, read-out: t1/2, Arithmetic Mean): < 60 min
half-life (po, 75 mg, single oral dose 75 mg, Fed, N = 10, read-out: t1/2, Geometric Mean (converted)): 50.1 min
Tmax (po, 75 mg, single oral dose 75 mg, Fed, N = 10): 75.6 min
% AUCex, Arithmetic Mean [3]: 0.89%
CL/F, Arithmetic Mean [3]: 44.52 L/h
CL/F, Geometric Mean [3]: 42.44 L/h
Cav, Arithmetic Mean [3]: 77.4 ng/mL
Cav, Geometric Mean [3]: 73.6 ng/mL
Cmax, Geometric Mean (single oral dose 75 mg, Fed (high-fat breakfast), N = 10, plasma): 263.2 ng/mL
% AUCex, Arithmetic Mean [4]: 3.5%
AUC(0-12), Geometric Mean [4]: 767.4 ng·h/mL
CL/F, Arithmetic Mean [4]: 100.3 L/h
CL/F, Geometric Mean [4]: 97.59 L/h
Cav, Arithmetic Mean [4]: 33.0 ng/mL
Cav, Geometric Mean [4]: 32.0 ng/mL
SMILES: CCCCOC(=O)NS(=O)(=O)c1sc(CC(C)C)cc1-c1ccc(Cn2ccnc2)cc1 [C21, N-butyloxycarbonyl-3-(4-imidazol-1-ylmethylphenyl)-5-iso-butylthiophene-2-sulfonamide]
